# Data reported in patent publication US9925154B2 (Seattle Children's Hospital, priority 2011, dated 2018).
# Counter-ions that a name gives are not always drawn. Like-named read-outs stand apart in the source and are kept apart here.
# Assays:
# [1] = tested on: procollagen I; assay: ECM gene mRNA by real-time qPCR in UUO kidneys: procollagen I; type: in vivo, mice; conditions: 600 mg/kg
# Protocol: (§1) Unilateral ureteral obstruction (UUO) was performed on 8 week-old wild-type male mice on a C57BL6 background. […] The kidneys were harvested at 3, 7, and 14 days after UUO.
# (§2) Extracellular matrix (ECM) gene mRNA levels were measured by semiquantitative real-time PCR (qPCR) in both doses at 3, 7 and 14 days after UUO. Real-time qPCR) was performed with specific primers for collagen 1A1, collagen 3A1, fibronectin, and other profibrotic and proinflammatory genes using standard protocols. Semi-quantitative real-time qPCR data was analyzed with REST software using both GAPDH and 18S as reference genes. Reactions were run in triplicate, and mean threshold crossing cycle (Ct) values were compared. ‡P<0.05; †P<0.01.
# [2] = tested on: fibronectin; assay: ECM gene mRNA by real-time qPCR in UUO kidneys: fibronectin; type: in vivo, mice; conditions: day 7 after UUO
# Protocol: as §1, §2
# [3] = Plasma cysteamine levels by mass spectrometry; type: in vivo, mice; conditions: for plasma levels of cysteamine at the time of sacrifice: day 14 after UUO
# Protocol: Plasma cysteamine levels were measured by mass spectrometry by the reference laboratory at UC San Diego that also runs most of the human samples for the North American patients with cystinosis.
# Plasma levels were taken every hour during the evening (for 12 hours) and every four hours during the day (n=4/group).
# [4] = tested on: UUO kidneys; assay: Total kidney collagen (hydroxyproline) in UUO kidneys; type: in vivo, mice; conditions: for reduction of total kidney collagen content: day 14 after UUO
# Protocol: (§3) Cysteamine bitartrate, the bitartrate salt of cysteamine is known commercially as Cystagon®. […] Both doses were well-tolerated and measured serum levels of cysteamine were appropriate.
# Unilateral ureteral obstruction (UUO) was performed on 8 week-old wild-type male mice on a C57BL6 background. […] Groups of mice (n=8-10 mice per group at each time-point) were studied 3, 7, 14, and 21 days after the onset of chronic injury induced by UUO.
# Total collagen was measured as hydroxyproline concentration in hydrolysates extracted from frozen normal (unobstructed) and UUO kidney samples. […] Collagen reduction was confirmed by sirius red staining
# [5] = tested on: procollagen III; assay: ECM gene mRNA by real-time qPCR in UUO kidneys: procollagen III; type: in vivo, mice; conditions: day 7 after UUO
# Protocol: as §1, §2
# [6] = tested on: TGF-β; assay: Real-time PCR of profibrotic cytokines in UUO kidneys: TGF-β; type: in vivo; conditions: vs control mice; for down-regulation of TGF-β mRNA levels: day 14 after UUO
# Protocol: (§4) The expression patterns of pro-inflammatory and pro-fibrotic cytokines were investigated at day 7 and day 14 in total kidney homogenate by semi-quantitative real time qPCR.
# (§5) UUO was performed on 8 week-old wild-type male mice on a C57BL6 background. […] The kidneys (obstructed and contralateral) were harvested at day land day 14 after UUO.
# (§6) Semi-quantitative real-time PCR was performed with specific primers to TGF-β and TGF-β receptor 1 genes using iCycler (Bio-Rad) with standard protocol. […] Semi-quantitative real-time PCR data was analyzed with REST software using both GAPDH and 18S as reference genes. Each sample was performed in triplicate. (‡P<0.05, †P<0.01).
# [7] = tested on: IL-1β, TNF-α, IL-6, Gal-3, and Endo180; assay: Real-time qPCR of pro-inflammatory and pro-fibrotic cytokines in UUO kidneys; type: in vivo; conditions: day 14 after UUO, vs control mice
# Protocol: as §4, §5
# [8] = tested on: F4/80-positive interstitial macrophages; assay: F4/80 confocal staining of UUO kidneys; type: in vivo, mice
# Protocol: as §5, with “UUO. Macrophage accumulation was analyzed by confocal staining using F4/80 rat anti-mouse macrophage monoclonal antibody (Serotec Ltd., Oxford, UK).” for “UUO.”
# [9] = tested on: α-SMA-positive myofibroblasts; assay: α-SMA immunoperoxidase staining of UUO kidneys; type: in vivo, mice
# Protocol: Myofibroblast activation and accumulation was examined after UUO by measuring the expression of α-smooth muscle actin (α-SMA), a marker of myofibroblast activation. Interstitial myofibroblasts are the primary matrix-producing cell in response to kidney injury. […] Cell proliferation was measured by counting BrdU positive cells using a monoclonal anti-BrdU antibody. Myofibroblast recruitment was quantified after immunoperoxidase staining using peroxidase-conjugated murine anti-human α-smooth muscle actin (α-SMA) 1A4 monoclonal antibody (Sigma).
# [10] = tested on: unilateral ureteral obstruction (UUO) kidneys; conditions: for severity of fibrosis as measured by total collagen content: day 14 after UUO
# Protocol: Mice were sacrificed at day 14 after UUO and total renal collagen levels (μg hydroxyproline/mg) were measured. Total collagen in the tissue was calculated on the assumption that collagen contains 12.7% hydroxyproline by weight.
# [11] = tested on: TGF-β receptor 1; assay: Real-time PCR of profibrotic cytokines in UUO kidneys: TGF-β receptor; type: in vivo; conditions: vs control mice; for down-regulation of TGF-β receptor mRNA levels: day 14 after UUO
# Protocol: as §4, §5, §6
# [12] = tested on: E-cadherin; assay: E-cadherin immunoblotting in UUO mice; type: in vivo; conditions: treated UUO mice
# Description: as §3
# [13] = tested on: Transglutaminase 2 (TGase2); assay: TGase2 protein expression in UUO kidneys; type: in vivo, mice; conditions: 400 mg/kg or 600 mg/kg
# Description: Transglutaminases (TGases) are a family of enzymes that catalyze the transamidation reaction between the γ-carboxyamide of a peptide-bound glutamine residue and the ϵ-amino group of a peptide-bound lysine residue or the primary amine group of a polyamine via forming a thioester acylenzyme intermediate at the active site cysteine. Thus, TGase activity produces cross-linked proteins or amine conjugates. One type of TGase, TGase2, acts to cross link ECM proteins, particularly Collagen III. Cross linking renders proteins resistant to degradation, which is thought to result in accelerated matrix deposition.
# [14] = delivery to the small intestine; cited from earlier work
# [15] = tested on: Nox2, Nox4, and SOD1; assay: Real-time qPCR of oxidant and anti-oxidant genes in UUO mice; type: in vivo; conditions: day 7 and day 14, qPCR (data not shown)
# Description: In addition, there was no difference between cysteamine-treated and control mice in the modulation of the expression of the oxidant and anti-oxidant genes Nox2, Nox4, and SOD1 as determined by semi-quantitative real time qPCR at day 7 and day 14 (data not shown).
# [16] = tested on: intracellular cystine (circulating white blood cells); conditions: cited from earlier work
# [17] = tested on: total kidney thiol content; assay: Total kidney thiol content in UUO mice; type: in vivo
# Protocol: In order to investigate the importance of total redox status during fibrotic injury, total kidney thiol content was measured as an indicator of antioxidant status.
# UUO was performed on 8 week-old wild-type male mice on a C57BL6 background (n=5/group). […] The kidneys (obstructed and contralateral) were harvested at days 7, 14 and 21 after UUO. Tissue from contralateral and UUO kidneys was processed in antioxidant buffer and analyzed for total thiol content fluorometrically and normalized to protein content using a Measure-iT™ Thiol Assay Kit (Invitrogen).
# [18] = target: T1, TGase (Homo sapiens, UniProt P21980); conditions: in vitro, Jeon et al. 2004; cited from earlier work
# T1 sequence (P21980 1-687): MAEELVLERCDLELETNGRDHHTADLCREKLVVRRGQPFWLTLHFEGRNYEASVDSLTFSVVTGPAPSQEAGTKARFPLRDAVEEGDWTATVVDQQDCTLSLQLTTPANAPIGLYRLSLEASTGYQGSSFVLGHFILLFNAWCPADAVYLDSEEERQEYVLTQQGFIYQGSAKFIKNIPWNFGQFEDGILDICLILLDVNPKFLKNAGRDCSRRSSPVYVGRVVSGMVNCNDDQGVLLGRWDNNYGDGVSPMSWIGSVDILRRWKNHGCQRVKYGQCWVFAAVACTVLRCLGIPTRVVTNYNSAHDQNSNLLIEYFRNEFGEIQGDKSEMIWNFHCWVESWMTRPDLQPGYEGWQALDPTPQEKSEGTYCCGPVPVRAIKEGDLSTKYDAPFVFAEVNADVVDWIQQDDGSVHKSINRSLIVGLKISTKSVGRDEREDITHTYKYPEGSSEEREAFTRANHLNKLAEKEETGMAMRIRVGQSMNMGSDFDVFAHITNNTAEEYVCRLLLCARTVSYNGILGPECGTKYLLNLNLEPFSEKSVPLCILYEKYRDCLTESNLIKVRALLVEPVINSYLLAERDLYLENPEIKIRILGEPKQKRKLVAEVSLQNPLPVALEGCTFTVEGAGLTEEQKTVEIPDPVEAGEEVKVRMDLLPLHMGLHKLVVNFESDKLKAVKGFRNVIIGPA
# [19] = tested on: unilateral ureteral obstruction (UUO) kidneys; assay: IP cysteamine HCL dose trial in UUO mice; type: in vivo
# Protocol: Unilateral ureteral obstruction (UUO) was performed on ten mice.
# [20] = high doses (600 mg/kg), day 7 after UUO
compound,measurement,setting,value
NCCS.O=C(O)C(O)C(O)C(=O)O (centres unmarked) [cysteamine bitartrate],reduction in procollagen I mRNA levels,[1]; day 7 after UUO,~60%
same,procollagen I mRNA levels lower,[1]; day 14 after UUO,56%
same,reduction in kidney fibronectin mRNA levels,[2]; 400 mg/kg,~40%
same,reduction in fibronectin mRNA levels,[2]; 600 mg/kg,~60%
same,plasma levels of cysteamine at the time of sacrifice,[3]; 400 mg/kg in drinking water,0.81±0.091 Ilmole/L
same,plasma levels of cysteamine at the time of sacrifice,[3]; 600 mg/kg in drinking water,1.04±0.151 Ilmole/L
same,"serum levels of cysteamine, night vs day","[3]; C57BL/6 mice, 600 mg/kg in drinking water for 3 days",higher serum levels of cysteamine are achieved at night and lower levels during the day
same,tolerability,"[4]; 400 mg/kg/day and 600 mg/kg/day, UUO mice",well-tolerated
same,reduction of total kidney collagen content,"[4]; 400 mg/kg/day in drinking water, vs untreated",21%
same,reduction of total kidney collagen content,"[4]; 600 mg/kg/day in drinking water, vs untreated",21%
same,decrease in collagen levels,"[4]; 600 mg/kg/day in drinking water, day 21 after UUO, vs untreated",25%
same,collagen reduction by sirius red staining,[4]; UUO kidneys,confirmed
same,kidney collagen levels,"[4]; both doses, 400 and 600 mg/kg/day, by day 14, P<0.01",statistically significant reductions
same,"total collagen, treated vs control",[4]; day 7 after UUO,no difference
same,reduction in procollagen III mRNA levels,[5]; 400 mg/kg,~40%
same,reduction in procollagen III mRNA levels,[5]; 600 mg/kg,~60%
same,down-regulation of TGF-β mRNA levels,[6]; 400 mg/kg,47%
same,down-regulation of TGF-β mRNA levels,[6]; 600 mg/kg,64%
same,up-regulation of TGF-β expression,[6]; [20],approximately 60%
same,"expression levels of IL-1β, TNF-α, IL-6, Gal-3, and Endo180",[7],No difference
same,reduction in interstitial macrophage infiltration,"[8]; 600 mg/kg/day, day 14 after UUO",34%
same,"interstitial macrophage infiltration, treated vs control",[8]; day 7 after UUO,No difference
same,reduction in α-SMA-positive myofibroblasts,"[9]; 400 mg/kg, day 14 after UUO",~30%
same,reduction in α-SMA-positive myofibroblasts,"[9]; 600 mg/kg, day 14 after UUO",~30%
same,severity of fibrosis as measured by total collagen content,[10]; 400 mg/kg in drinking water,attenuated
same,severity of fibrosis as measured by total collagen content,[10]; 600 mg/kg in drinking water,attenuated
same,deaths or abnormal behavior,"[10]; 200, 400, 600 mg/kg in drinking water, 14 days, even at high doses",No deaths or abnormal behavior was observed
same,down-regulation of TGF-β receptor mRNA levels,[11]; 400 mg/kg,47%
same,down-regulation of TGF-β receptor mRNA levels,[11]; 600 mg/kg,64%
same,up-regulation of TGF-β receptor expression,[11]; [20],approximately 60%
same,increase of E-cadherin levels (marker of tubular damage),[12],1.3 fold
"NCCS [cysteamine, β-mercaptoethylamine]",TGase2 protein expression in UUO kidneys,[13],no difference in TGase2 protein expression
same,Cmax,[14],increases Cmax
same,area under the curve (AUC),[14],increases area under the curve (AUC)
same,time to decrease in leukocyte cystine,[14],within an hour
same,"expression of oxidant and anti-oxidant genes Nox2, Nox4, and SOD1, treated vs control",[15],no difference
same,reduction in α-SMA-positive myofibroblasts,"[9]; 400 mg/kg, day 7 after UUO",38%
same,reduction in α-SMA-positive myofibroblasts,"[9]; 400 mg/kg, day 14 after UUO",24%
same,reduction in α-SMA-positive myofibroblasts,"[9]; 600 mg/kg, day 7 after UUO",47%
same,reduction in α-SMA-positive myofibroblasts,"[9]; 600 mg/kg, day 14 after UUO",33%
same,lowering of leukocyte cystine levels,"[16]; children with cystinosis, enteral administration (Dohil et al.)",prolonged efficacy in the lowering of leukocyte cystine levels
same,progression to kidney failure/transplantation,"[16]; subjects with cystinosis, taken regularly",reduce the rate of progression to kidney failure/transplantation
same,depletion of intracellular cystine,"[16]; taken regularly, measured in circulating white blood cells",up to 90%
same,total kidney thiol content in UUO kidney,"[17]; 400 mg/kg or 600 mg/kg, day 7 after UUO",remained at levels close to that of the contralateral kidney
same,increase of total kidney thiol content,"[17]; high dose (600 mg/kg), compared to controls",36%
same,TGase inhibition,[18],less potent inhibitor of TGase than both cystamine and primary amines
NCCS [cysteamine HCL],total renal collagen levels (hydroxyproline),"[19]; 400 mg/kg dose group, daily IP, day 14 after UUO, compared to placebo (PBS)",decreased total collagen levels
same,deaths,"[19]; IP, high dose levels",several mice died
same,adverse signs observed,"[19]; mouse, in vivo, ip",Possible seizures and somnolence
NCCS [cysteamine bitartrate],Cmax,"[3]; read-out: Cmax levels of cysteamine, C57BL/6 mice, 600 mg/kg in drinking water for 3 days",15 to 20 µM
